Results reported in patent US12161763B2, “Formulation and method for increasing oral bioavailability of drugs” (Yissum Research Development Company of the Hebrew …, priority 2012, dated 2024).
“And” between values parts separate entries of the source, which are not always exact repeats. Identical values can stand only once. Counter-ions that a name gives are not always drawn.

Experiments:
Male Wistar rats = experiment: AM pharmacodynamic study: heart rate and IBI by radiotelemetry; assay type: in vivo; conditions: 12.5 mg/kg AM PO
Procedure: The deferential effect of AM on heart rate was used as a pharmacodynamic marker for assessment of AM pharmacological effect following oral administration.
Male Wistar rats (Harlan, Israel) weighing 300-350 g were kept under a 12 h light/dark cycle with free access to water and food (standard rat chow) Animals were anesthetized for the period of surgery by intraperitoneal injection of 1 mL/kg of ketamine-xylazine solution (90/10%, respectively).
An ECG transmitter (TA11CA-F40, Data Sciences International Inc., St. Paul, MN) was implanted subcutaneously over the scapula with the leads in a Lead 2 configuration by tunneling subcutaneously from the dorsal incision using a trocar. The negative lead was placed in the area of the right shoulder and the positive lead was placed immediately to the left of the xyphoid space and caudal to the rib cage.
The signal from the transmitters was received by two RLA 2000 receivers and transmitted via a Data Exchange Matrix to a Dataquest PCI card. The data were recorded continuously during the whole experiment at 1000 Hz rate with no filter cutoff and full scale at 10 mV.
The collected data were interpreted by Dataquest A.R.T program. The IBI (R-R duration, sec) and HR (bpm) were calculated in average values of each 10 min of the recording.
At the beginning the baseline were recorded at least for 120 min. After establishing stable recording the rats were treated by oral gavage. During the treatment the data was collected and afterwards extracted in further analysis.
Two groups of three rats received the treatment in a cross over manner, meaning each rat received each treatment once. The treatments were as follows:
Blank nano-lipospheres not containing AM was freshly prepared as described above and was administered by oral gavage. […] .
In order to inspect separately the effect of each delivery method, we first calculated the mean baseline IBI duration throughout 60 min prior the administration. The drug was administered at t=60 min Post administration the data was calculated throughout 180 min. The net change was calculated as the percentage of the change for each drug administration mode relative to the baseline recording. The changes from base-line in two parameters: IBI and HR were analyzed in two points: 90 min. post administration (mid phase) and 180 min post administration (end phase) (Tables 9A-B and 10A-B, respectively).

[1] = Absorption enhancer pro-nano-liposphere development: dissolution in pre-concentrate and precipitation on dilution with water; assay type: physicochemical; conditions: for precipitation of the absorption enhancer upon dilution with water phase: curcumin 1% and 2%, resveratrol, piperine 2%
Procedure: The development of each of the formulations, in terms of a selection of the different components, was conducted by the following method. A combination of certain components was used as a reference starting point (as per Table 16). The choice of these certain triglyceride, organic amphiphilic co-solvent and the combination of surfactants in the detailed portions in Table 16 was based on the inventors' previous experience with various lipophilic drugs. Thus, an absorption enhancer was added to this specified prototype formulation to form a pre-concentrate.

[2] = CBD relative oral bioavailability: CBD, CBD-PNL and CBD-PNL with absorption enhancers; conditions: male, Wistar, rat, in vivo; PO CBD 15 mg/kg; Piperine 10 mg/kg, rats; mean ± S.E.M.
Procedure: The obtained CBD and piperine concentrations were 3 mg/mL and 2 mg/ml, respectively. […] The control groups received (15 mg/kg) CBD solution in propylene glycol/EthOH/water 30/30/40 respectively (1 mg/mL) (n=6) or CBD-PNL ((15 mg/kg of CBD).

[3] = CBD nano lipospheres relative oral bioavailability study; assay type: in vivo; conditions: male, Wistar, rat, plasma; PO 15 mg/kg CBD, rats
Procedure: The obtained CBD concentration was 3 mg/mL. […] The control group received (15 mg/kg) CBD solution in propylene glycol/EthOH/water 30/30/40 respectively (1 mg/mL) (n=6).

[4] = Talinolol relative oral bioavailability study; assay type: in vivo; conditions: male, Wistar, rat, plasma; PO 4 mg/kg talinolol, rats
Procedure: The obtained talinolol concentration was 1 mg/mL. […] The control group received 4 mg/kg talinolol dissolved in PEG400:water:ethanol 25:60:15 to obtain 1 mg/mL concentration (n=6).

[5] = Tacrolimus oral bioavailability study; assay type: in vivo, Male Wistar rats
[6] = Compatibility of BCS class II and IV drugs with the piperine-PNL pre-concentrate; assay type: physicochemical
Excerpt: In order to determine the compatibility of the developed PNL delivery system with various lipophilic drugs, we have tested the ability of the piperine-PNL to dissolve various BCS class II and IV drugs.

CYP3A4 = conditions: 120 min incubation in isolated rat microsomes
[7] = 90 min post administration, HCl
[8] = 180 min post administration, HCl

CCCCc1oc2ccccc2c1C(=O)c1cc(I)c(OCCN(CC)CC)c(I)c1 [AM, Amiodarone HCl]
HEART RATE (BPM) MID PHASE (Male Wistar rats; 90 min post administration): 452.916 ± 20.01 BPM
IBI (sec) MID PHASE (Male Wistar rats; 90 min post administration): 0.1435 ± 0.008 s
HEART RATE CHANGE % (percentage from baseline), mid phase (Male Wistar rats; [7]): 131.28% and 131.28 (*) %
IBI CHANGE % (percentage from baseline), mid phase (Male Wistar rats; [7]): 88.86% and 88.86 (*) %
IBI (sec) END PHASE (Male Wistar rats; 180 min post administration): 0.143 ± 0.007 s
HEART RATE (BPM) END PHASE (Male Wistar rats; [8]): 443.071 ± 11.06 BPM and 443.07 ± 11.06 BPM
HEART RATE CHANGE % (percentage from baseline), end phase (Male Wistar rats; [8]): 128.43% and 128.43 (*) %
IBI CHANGE % (percentage from baseline), end phase (Male Wistar rats; [8]): 89.79% and 89.79 (*) %
heart rate following administration (Male Wistar rats; phase not given): 452.916±20.01 BPM
mean IBI following administration (Male Wistar rats; phase not given): 0.143 ± 0.0074 s

COc1cc(/C=C/C(=O)CC(=O)/C=C/c2ccc(O)c(OC)c2)ccc1O [curcumin]
precipitation of the absorption enhancer upon dilution with water phase [1]: precipitation

C=C(C)[C@@H]1CCC(C)=C[C@H]1c1c(O)cc(CCCCC)cc1O [CBD, Cannabidiol]
AUC [2]: 90 ± 21 ng·h/mL
Cmax [2]: 39 ± 8 ng/mL
AUC [3]: 259 ng·h/mL
Cmax [3]: 105 ± 103 ng/mL

CC(C)(C)NCC(O)COc1ccc(NC(=O)NC2CCCCC2)cc1 (stereo not drawn) [Talinolol, talinolol]
AUC [4]: 11.9 ng·h/mL
Cmax [4]: 5.55 ± 1.65 ng/mL
half-life [4]: 1.15 ± 0.19 h

C=CC[C@@H]1/C=C(\C)C[C@H](C)C[C@H](OC)[C@H]2O[C@@](O)(C(=O)C(=O)N3CCCC[C@H]3C(=O)O[C@H](/C(C)=C/[C@@H]3CC[C@@H](O)[C@H](OC)C3)[C@H](C)[C@@H](O)CC1=O)[C@H](C)C[C@@H]2OC [tacrolimus]
Coefficient of variation (% CV) of plasma tacrolimus concentrations ([5]; 0.25 h after PO 1 mg/kg): 95.1%
Coefficient of variation (% CV) of plasma tacrolimus concentrations ([5]; 0.5 h after PO 1 mg/kg): 90.8%
Coefficient of variation (% CV) of plasma tacrolimus concentrations ([5]; 0.75 h after PO 1 mg/kg): 73.2%
Coefficient of variation (% CV) of plasma tacrolimus concentrations ([5]; 1 h after PO 1 mg/kg): 83.5%
Coefficient of variation (% CV) of plasma tacrolimus concentrations ([5]; 2 h after PO 1 mg/kg): 103.5%

C[C@@H]1[C@H](O)[C@@H](C)/C=C/C=C/C=C/C=C/C=C/C=C/C=C/[C@H](O[C@@H]2O[C@H](C)[C@@H](O)[C@H](N)[C@@H]2O)C[C@@H]2O[C@](O)(C[C@@H](O)C[C@@H](O)[C@H](O)CC[C@@H](O)C[C@@H](O)CC(=O)O[C@H]1C)C[C@H](O)[C@H]2C(=O)O [Amphotericin B]
compatibility with the pre-concentrate [6]: incompatible

Oc1ccc(C=Cc2cc(O)cc(O)c2)cc1 [resveratrol]
dissolution of the absorption enhancer in the pre-concentrate / appearance of pre-concentrate [1]: homogeneous and visually clear pre-concentrate
precipitation of the absorption enhancer upon dilution with water phase [1]: No precipitation

C[C@]12CC[C@H]3[C@@H](CCC4=CC(=O)CC[C@@]43C)[C@@H]1CC[C@@H]2O [testosterone]
testosterone remaining (CYP3A4): 75.39±8.82%
